Measurements from patent publication US9492552B2, “Injectable aqueous pharmaceutical compositions comprising a cyclodextrin, a hydrophobic drug, a co-solvent, and a preservative” (JUROX PTY LTD, priority 2011, dated 2016).

Experiment: Precipitation of alfaxalone from alfaxalone/2-hydroxypropyl-β-cyclodextrin complex solution on adding preservative without co-solvent
Type: physicochemical
Settings: upwards to 1% w/v (typical content); no co-solvent

OCc1ccccc1 [benzyl alcohol]
benzyl alcohol content at which significant precipitation occurs (titration): ≥ 0.2 % w/v
